The experiment addresses Epidermal growth factor receptor (Homo sapiens, UniProt P00533). As to the kind of experiment: Inhibition of partially purified EGFR tyrosine kinase from human A431 cells.

Epidermal growth factor receptor, sequence (P00533 whole entry): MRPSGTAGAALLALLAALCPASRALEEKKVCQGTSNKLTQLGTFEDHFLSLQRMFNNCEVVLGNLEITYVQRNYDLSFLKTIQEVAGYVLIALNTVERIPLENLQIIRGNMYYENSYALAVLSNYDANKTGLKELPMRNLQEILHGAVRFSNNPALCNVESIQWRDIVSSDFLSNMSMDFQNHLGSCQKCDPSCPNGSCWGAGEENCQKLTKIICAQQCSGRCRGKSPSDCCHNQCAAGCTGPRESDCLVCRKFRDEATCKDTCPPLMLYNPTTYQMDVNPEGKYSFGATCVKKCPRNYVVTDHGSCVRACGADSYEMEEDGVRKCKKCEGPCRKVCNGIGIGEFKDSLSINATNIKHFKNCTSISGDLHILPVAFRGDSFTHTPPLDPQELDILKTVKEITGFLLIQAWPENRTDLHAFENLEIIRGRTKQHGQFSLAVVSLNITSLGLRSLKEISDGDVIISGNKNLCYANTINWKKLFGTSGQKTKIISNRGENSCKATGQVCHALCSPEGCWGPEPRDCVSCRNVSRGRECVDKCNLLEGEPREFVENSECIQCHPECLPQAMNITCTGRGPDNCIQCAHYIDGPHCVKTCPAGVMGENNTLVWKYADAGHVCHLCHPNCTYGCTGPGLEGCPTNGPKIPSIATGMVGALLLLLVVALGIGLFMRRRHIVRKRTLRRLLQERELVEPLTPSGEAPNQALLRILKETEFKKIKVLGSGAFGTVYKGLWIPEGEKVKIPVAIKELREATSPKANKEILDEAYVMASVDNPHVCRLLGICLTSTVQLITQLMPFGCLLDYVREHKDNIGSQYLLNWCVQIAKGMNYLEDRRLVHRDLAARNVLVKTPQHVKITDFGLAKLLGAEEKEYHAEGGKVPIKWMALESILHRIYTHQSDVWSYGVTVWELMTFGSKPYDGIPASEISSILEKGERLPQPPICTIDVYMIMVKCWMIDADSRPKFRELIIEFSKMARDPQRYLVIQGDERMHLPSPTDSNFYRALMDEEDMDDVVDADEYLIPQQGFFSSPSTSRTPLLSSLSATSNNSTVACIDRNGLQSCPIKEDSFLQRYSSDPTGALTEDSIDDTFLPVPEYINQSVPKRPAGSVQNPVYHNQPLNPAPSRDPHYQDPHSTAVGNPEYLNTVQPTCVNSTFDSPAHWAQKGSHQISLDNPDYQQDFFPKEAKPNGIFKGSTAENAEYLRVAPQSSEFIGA

As a reminder, the IC50 is the concentration needed to halve the response being measured. A lower IC50 goes with greater potency in that assay. Regarding `COc1cc2ncnc(C#CCCc3ccccc3)c2cc1OC`, the concentration for half-maximal inhibition (IC50) is 14 nM.
`CCN(CC)[C@@](C)(C#Cc1ncnc2cc(OC)c(OC)cc12)c1ccccc1`: the IC50 amounted to 7300 nM.
On to `CCN(CC)[C@@](C)(C#Cc1ncnc2cc(OC)c(OC)cc12)Cc1ccncc1`, for which inhibition was half-maximal at 200 nM (IC50).
Molecule `COc1cc2ncnc(C#CC(C)(C)Cc3ccccc3)c2cc1OC` yielded an IC50 of 13 nM.
In the case of `CCN(CC)[C@@](C)(C#Cc1ncnc2cc(OC)c(OC)cc12)CC1CCCCC1` it was 1100 nM.
Under `COc1cc2ncnc(/C=C/CCc3ccccc3)c2cc1OC` stands 4 nM; under `CCN(CC)[C@@](C)(CCc1ncnc2cc(OC)c(OC)cc12)Cc1ccccc1`, 130 nM; under `CCN(CC)[C@@](C)(C#Cc1ncnc2cc(OC)c(OC)cc12)CCc1ccccc1`, 1200 nM.
`CCOc1cc2ncnc(/C=C/c3ccccc3)c2cc1OCC` came in with an IC50 of 15 nM.
In the case of `CCOc1cc2ncnc(C#Cc3nccn3-c3ccccc3)c2cc1OCC` it was 12 nM; in that of `COc1cc2ncnc(C#C[C@@](C)(Cc3ccccc3)N3CCC(C(=O)O)CC3)c2cc1OC`, 33 nM; in that of `CCOc1cc2ncnc(C#Cc3c[nH]nc3-c3ccc(F)cc3)c2cc1OCC`, 1.8 nM.
In the case of `CCOc1cc2ncnc(/C=C/CCc3ccccc3)c2cc1OCC` it was 5 nM; in that of `CCOc1cc2ncnc(C#C[C@](C)(Cc3ccccc3)N3CCC(C(=O)O)CC3)c2cc1OCC`, 662 nM; in that of `CCOc1cc2ncnc(C#CC(C)(Cc3ccccc3)N3CCC(C(=O)O)CC3)c2cc1OCC` (racemic), 11.7 nM.
Under `COc1cc2ncnc(C#CC(C)(C)N(C)c3ccccc3)c2cc1OC` stands 80 nM.
The molecule `CCN(CC)[C@@](C)(C#Cc1ncnc2cc(OC)c(OC)cc12)Cc1ccccc1` registered an IC50 of 3 nM.
Under `COc1cc2ncnc(C#Cc3ccccc3-c3ccccc3)c2cc1OC` stands 26 nM.
In turn, `CCOc1cc2ncnc(C#C[C@@](C)(Cc3ccccc3)N3CCC(C(=O)O)CC3)c2cc1OCC` had an IC50 of 4.2 nM.
Regarding `CCOc1cc2ncnc(C#Cc3[nH]ccc3-c3ccccc3)c2cc1OCC`, the midpoint of inhibition, the IC50, lay at 10 nM.
Turning to `COc1cc2ncnc(C#CCOc3ccccc3)c2cc1OC`, the IC50 was 15 nM.
In the case of `CCOc1cc2ncnc(/C=C/CCCc3ccccc3)c2cc1OCC` it was 140 nM.
In the case of `COc1cc2ncnc(C#Cc3ccccc3)c2cc1OC` it was 5600 nM.
